This note sets out measurements from US4107165A, “Tris[tetrahydroisoquinoline] compounds” (Endo Laboratories, priority 1976, dated 1978).

In data set [1] the test system is ADP-induced platelet aggregation. The data set is described as follows: inhibition of ADP-induced platelet aggregation in platelet rich plasma. The conditions noted are these: 5 min; human platelet rich plasma, 37° C, five minutes incubation prior to ADP; read-out: ED50 (amount which reduces platelet aggregation by 50%). The format is cell-based. As to the method: Another selection of representative compounds within the scope of the present invention, including some listed in the previous table, have been tested for their ability to inhibit platelet aggregation. Citrated whole blood from human volunteers, who had not taken any medicine for the previous week, was centrifuged to obtain platelet rich plasma. On addition of ADP (adenosine diphosphate) to this platelet rich plasma, incubated at 37° C with constant stirring, in an aggregometer, optical density changes can be observed which are caused by platelet aggregation. Thus, the extent of ADP-induced platelet aggregation is determined for each sample of blood used. Compounds to be tested were incubated for five minutes prior to the addition of ADP. The ED50 of a compound is that amount, in γ/ml, which reduces platelet aggregation by 50% under the above conditions.

Data set [2] deals with rats. The data set is described as follows: toxicity, intraperitoneal administration to rats. The conditions noted are these: at 0.01 mg./kg. and at 10 mg./kg. The format is in vivo. The text has this:
An outstanding feature of the compounds of this invention is their relative lack of toxicity. Although they are active at very low dose levels, it is possible to exceed minimum effective levels by wide margins without encountering serious adverse reactions. This permits the compounds to be used within wide limits without concern about undesirable side effects, as are so frequently encountered upon inadvertent overdosage of other substances of great potency.

For data set [3], the system named is whole blood clot. Put plainly: whole blood clot lysis method (fibrinolytic activity), blood from rats given compound intraperitoneally. Format: in vivo. The conditions noted are these: Rattus norvegicus, ip, 4 h, intraperitoneal, blood diluted 1:10, clotted with thrombin, 37° C, four hours, read-out: ED50 (dose which causes lysis of 50% of the clot). As to the method:
Certain representative compounds within the scope of the present invention have been tested for fibrinolytic activity by the whole blood clot lysis method, as modified from the procedure of Billimoria et al.^1 In this method, blood from rats given a fibrinolytic compound intraperitoneally is taken and diluted 1:10. A standard amount is clotted with thrombin, incubated at 37° C for four hours, and the amount of clot that has lysed is determined. […] These ED50 values for the various compounds tested are set forth in the following table, each of the compounds being identified by name and by the number of the ensuing example in which its synthesis is described. […] ^1 Billimoria, […]., James, […]., Lancet II, 471 (1959)

Take `COc1cc2c(cc1OC)C(CCCCC(CCC1NCCc3cc(OC)c(OC)cc31)CCC1NCCc3cc(OC)c(OC)cc31)NCC2.Cl.Cl.Cl` (stereo not drawn) [Example 1.1, 1,1'-{3-[2-(1,2,3,4-tetrahydro-6,7-dimethoxy-1-isoquinolinyl)ethyl]heptamethylene}bis[1,2,3,4-tetrahydro-6,7-dimethoxyisoquinoline] trihydrochloride]: the IC50 in data set [1] was 6 µg/mL. Further, the toxicity entry in data set [2] is recorded as “without producing toxicity”. Also, the ED50 in data set [3] came to 0.02 mg/kg.
